The record followed here is patent US20240124454A1, “TRICYCLIC COMPOUND AND USE THEREOF” (NANJING ZAIMING PHARMACEUTICAL CO., LTD., priority 2020, published 2024).

SMILES strings stand for the structures.

Series [1] is described as follows: Metabolic stability in mouse liver microsomes. It is filed as in vitro ADME. The conditions noted are these: 1 μM compound, 0.5 mg/mL microsome, NADPH; for half-life at 1 μM: CD-1, mouse, liver microsomes, pH 7.4, read-out: Mouse liver microsome stability t1/2. The protocol:
Test Example 4. Determination of Metabolic Stability of Compound of the Present Application in Liver Microsomes
The metabolic stability of the compound of the present application in liver microsomes was determined using the following method.
I. Experimental materials and instruments • 1. Human liver microsome (Corning 452117), beagle dog liver microsome (XENOTECH D1000), SD rat liver microsome (XENOTECH R1000), and CD-i mouse liver microsome (XENOTECH M1000) • 2. Na2HPO4 (Tianjin Guangfu Fine Chemical Research Institute 20180130) • 3. KH2PO4 (Tianjin Guangfu Fine Chemical Research Institute 20180920) • 4. MgCl2 (Tianjin Guangfu Fine Chemical Research Institute 20191216) • 5. NADPH (Solarbio 1216C022) • 6. Positive control compound verapamil (Sigma MKBV4993V) • 7. AB Sciex API4000 liquid chromatography-mass spectrometry system
1. Preparation of 100 mMV phosphate-buffered saline (PBS): 7.098 g Na2HPO4 was weighed. 500 mL pure water was added. The mixture was dissolved by sonication to give solution A. 3.400 g KH2PO4 was weighed. 250 mL pure water was added. The mixture was dissolved by sonication to give solution B. The solution A was placed in a stirrer, and the solution B was slowly added until the pH reached 7.4, so that the 100 mM PBS buffer was prepared.
2. Preparation of reaction system
The reaction system was prepared as follows:
3. The reaction system was pre-incubated in a 37° C. water bath for 10 min. 40 μL of 10 mM NADPH solution (NADPH was dissolved by 100 mM phosphate-buffered saline) was added to the reaction system with a final concentration of NADPH being 1 mM. A negative control was made by replacing the NADPH solution with 40 μL phosphate-buffered saline. The negative control was used to exclude the effect of chemical stability of the compound itself.
4. The reaction was initiated by adding 4 μL of 100 μM of the compound of the present application and verapamil, the positive control compound, to the reaction system with a final concentration of the compound being 1 μM.
5. After being uniformly mixed in a vortex oscillator, 50 μL incubation sample was respectively taken out at 0.5, 15, 30, 45, and 60 min, and the reaction was stopped by 200 μL glacial acetonitrile containing an internal standard. The sample was centrifuged at 3220 g for 45 min. 90 μL of the supernatant was transferred to a feeding plate after the centrifugation was completed, and 90 μL ultrapure water was added. The mixture was well mixed for LC-MS/MS analysis.
All data were calculated by Microsoft Excel software. The peak area was detected through an extracted ion chromatogram. The in vitro half-life (t1/2) of the compound was determined by linear fitting of the natural logarithm of compound elimination percentage over time.
In vitro half-life (t1/2) was calculated by the slope: […]
The in vitro intrinsic clearance (in μL/min/mg protein) was calculated using the following formula:
in vitro CLint=k×volume of incubation (μL)/amount of proteins (mg)
CLint was intrinsic clearance; k was an elimination rate constant; volume of incubation was the incubation volume (μL); amount of proteins was the amount of protein (mg)
On the technique in general: Liver microsomes are a subcellular fraction often used to study metabolism.

A further series deals with CYP3A4 (Homo sapiens (Human), UniProt P08684). The series can be described thus: CYP3A4 inhibition in human liver microsomes (midazolam substrate). The format is in vitro ADME. Particulars: human liver microsome. The protocol: Test Example 7. Inhibitory Effect of Compound of the Present Application on Enzymatic Activity of CYP2C9, CYP2D6, and CYP3A4
Chain of CYP3A4 (P08684 whole entry): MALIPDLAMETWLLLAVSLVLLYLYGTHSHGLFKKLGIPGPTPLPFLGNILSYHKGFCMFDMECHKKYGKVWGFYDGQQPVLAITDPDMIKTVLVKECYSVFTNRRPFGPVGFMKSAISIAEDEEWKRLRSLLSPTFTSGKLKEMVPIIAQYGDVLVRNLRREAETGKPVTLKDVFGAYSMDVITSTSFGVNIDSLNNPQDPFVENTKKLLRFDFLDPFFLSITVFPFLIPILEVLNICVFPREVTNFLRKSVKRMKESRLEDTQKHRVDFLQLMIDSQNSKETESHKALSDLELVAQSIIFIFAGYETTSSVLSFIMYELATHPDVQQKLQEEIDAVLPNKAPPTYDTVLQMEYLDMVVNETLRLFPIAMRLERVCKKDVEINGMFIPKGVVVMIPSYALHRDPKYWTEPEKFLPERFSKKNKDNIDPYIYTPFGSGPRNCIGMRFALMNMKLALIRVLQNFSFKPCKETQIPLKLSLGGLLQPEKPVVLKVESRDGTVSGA
The inhibition of CYP2C9, CYP2D6, and CYP3A4 activity by the compound of the present application was determined using the following method.
I. Experimental materials and instruments • 1. Human liver microsome (Corning 452117) • 2. NADPH (Solarbio 705Y021) • 3. Positive substrates diclofenac (Sigma SLBV3438), dextromethorphan (TRC 3-EDO-175-1), and midazolam (Cerilliant FE01161704) • 4. Positive inhibitors sulfaphenazole (D. Ehrenstorfer GmbH 109012), quinidine (TCI WEODL-RE), and ketoconazole (Sigma 100M1091V) • 5. AB Sciex Triple Quad 5500 liquid chromatography-mass spectrometry system
1. Preparation of 100 mM phosphate-buffered saline (PBS): 7.098 g Na2HPO4 was weighed. 500 mL pure water was added. The mixture was dissolved by sonication to give solution A. 3.400 g KH2PO4 was weighed. 250 mL pure water was added. The mixture was dissolved by sonication to give solution B. The solution A was placed in a stirrer, and the solution B was slowly added until the pH reached 7.4, so that the 100 mM PBS buffer was prepared.
2. A 10 mM NADPH solution was prepared with a 100 mM PBS buffer. A 10 mM stock solution of the compound of the present application was diluted with DMSO to give a compound working solution at a concentration of 200×(6000, 2000, 600, 200, 60, 20, and 0 μM). The positive inhibitor stock solution was diluted with DMSO to give a positive inhibitor working solution at a concentration of 200×(sulfaphenazole, 1000, 300, 100, 30, 10, 3, and 0 μM; quinidine/ketoconazole, 100, 30, 10, 3, 1, 0.3, and 0 μM). Substrate working solutions (120 μM diclofenac, 400 μM dextromethorphan, and 200 μM midazolam) at a concentration of 200× were prepared with water, acetonitrile, or acetonitrile/methanol.
3. 2 μL of 20 mg/mL liver microsome solution, 1 μL of substrate working solution, 1 μL of compound working solution, and 176 μL of PBS buffer were taken, mixed well, and placed in a 37° C. water bath for pre-incubation for 15 min. 1 μL of sulfaphenazole, quinidine, or ketoconazole working solution was added to the positive control group instead of the compound working solution. At the same time, 10 mM NADPH solution was placed together in the 37° C. water bath for pre-incubation for 15 min. After 15 min, 20 μL of NADPH was added to each well to initiate the reaction. The mixture was incubated at 37° C. for 5 min (CYP2C9), 20 min (CYP2D6), or 5 min (CYP3A4). All incubated samples were in duplicate. After incubation for the corresponding period of time, 400 μL of icy methanol containing internal standard was added to all samples to stop the reaction. The mixture was vortexed, mixed well, and centrifuged for 40 min at 4° C. at 3220 g. 100 μL of the supernatant was transferred to a feeding plate after the centrifugation was completed, and 100 μL ultrapure water was added. The mixture was well mixed for LC-MS/MS analysis.
The reduction of metabolite production in the treatment groups versus the control group was compared by the peak area ratios of the sample to the internal standard, and the IC50 value was calculated using Excel XLfit 5.3.1.3.
Percentages of remaining activity were calculated according to the following formula:
Remaining activity%=peak area ratio of metabolite to internal standardtest sample/peak area ratio of metabolite to internal standardblank solvent×100%.

For the compound `Cc1ncccc1-n1c(=O)c2ncn(C)c2c2ccc(C(F)(F)F)nc21` (atropisomer, axis not shown) [Compound 20, 1-methyl-5-(2-methylpyridin-3-yl)-7-(trifluoromethyl)-1,5-dihydro-4H-imidazo[4,5-c][1,8]naphthyridin-4-one], the half-life at 1 μM in series [1] was greater than 5 h. In addition, the IC50 on CYP3A4 is greater than 30 µM.

As for `Cn1cnc2c(=O)n(-c3cccc(F)c3Cl)c3nc(C(F)(F)F)ccc3c21` (atropisomer, axis not shown) [Compound 25, 5-(2-chloro-3-fluorophenyl)-1-methyl-7-(trifluoromethyl)-1,5-dihydro-4H-imidazo[4,5-c][1,8]naphthyridin-4-one], the half-life at 1 μM in series [1] came to 4.78 h. Also, at CYP3A4, the IC50 is greater than 30 µM.

In the case of `Cn1cnc2c(=O)n(-c3cccc(F)c3Cl)c3nc(C(F)(F)F)ccc3c21` (single isomer, unassigned) [Compound 25-P2, 5-(2-chloro-3-fluorophenyl)-1-methyl-7-(trifluoromethyl)-1,5-dihydro-4H-imidazo[4,5-c][1,8]naphthyridin-4-one], in series [1], the half-life at 1 μM was greater than 5 h. Besides, the IC50 at CYP3A4 is greater than 30 µM.

For `Cn1cnc2c(=O)n(-c3cccnc3C(F)(F)F)c3nc(C(F)(F)F)ccc3c21` (single isomer, unassigned) [Compound 41-P2, 1-methyl-7-(trifluoromethyl)-5-(2-(trifluoromethyl)pyridin-3-yl)-1,5-dihydro-4H-imidazo[4,5-c][1,8]naphthyridin-4-one], the half-life at 1 μM in series [1] is greater than 5 h. This compound displayed an IC50 against CYP3A4 greater than 30 µM.

Regarding `Cn1cnc2c(=O)n(-c3cccnc3C3CC3)c3nc(C(F)(F)F)ccc3c21` (single isomer, unassigned) [Compound 42-P2, 5-(2-cyclopropylpyridin-3-yl)-1-methyl-7-(trifluoromethyl)-1,5-dihydro-4H-imidazo[4,5-c][1,8]naphthyridin-4-one], the half-life at 1 μM in series [1] amounted to 1.86 h. At CYP3A4, this compound showed an IC50 greater than 30 µM.

`Cn1cnc2c(=O)n(-c3cccnc3C3CC3)c3cc(C(F)(F)F)ccc3c21` (single isomer, unassigned) [Compound 48-P2, 5-(2-cyclopropylpyridin-3-yl)-1-methyl-7-(trifluoromethyl)-1,5-dihydro-4H-imidazo[4,5-c]quinolin-4-one]: the half-life at 1 μM in series [1] was greater than 5 h. The IC50 against CYP3A4 is greater than 30 µM.

In the case of `Cn1cnc2c(=O)n(-c3cccnc3C3CC3)c3cc(Cl)ccc3c21` (single isomer, unassigned) [Compound 49-P2, 7-chloro-5-(2-cyclopropylpyridin-3-yl)-1-methyl-1,5-dihydro-4H-imidazo[4,5-c]quinolin-4-one], the half-life at 1 μM in series [1] was greater than 5 h. For the same compound, on CYP3A4, the IC50 is greater than 30 µM.

In the case of `O=c1c2ncoc2c2ccc(C(F)(F)F)nc2n1-c1cccnc1C1CC1` (single isomer, unassigned) [Compound 81-P2, 5-(2-cyclopropylpyridin-3-yl)-7-(trifluoromethyl)oxazolo[4,5-c][1,8]naphthyridin-4(5H)-one], at CYP3A4, the IC50 was greater than 30 µM.

Regarding `Cn1cnc2c(=O)n(-c3cccc(F)c3Cl)c3cc(Cl)ccc3c21` [Compound 39, 7-chloro-5-(2-chloro-3-fluorophenyl)-1-methyl-1,5-dihydro-4H-imidazo[4,5-c]quinolin-4-one], the “Mouse liver microsome stability t1/2” value in series [1] was greater than 5 h. On CYP3A4, the IC50 was greater than 30 µM.

With `Cc1ncccc1-n1c(=O)c2ncoc2c2ccc(C(F)(F)F)nc21` [Compound 40, 5-(2-methylpyridin-3-yl)-7-(trifluoromethyl)oxazolo[4,5-c][1,8]naphthyridin-4(5H)-one], the half-life at 1 μM in series [1] was greater than 5 h. The compound also yielded an IC50 on CYP3A4 greater than 30 µM.

`Cc1ncccc1-n1c(=O)c2ncn(C)c2c2ccc(C(F)(F)F)cc21` [Compound 45, 1-methyl-5-(2-methylpyridin-3-yl)-7-(trifluoromethyl)-1,5-dihydro-4H-imidazo[4,5-c]quinolin-4-one]: the half-life at 1 μM in series [1] is greater than 5 h. At CYP3A4, the IC50 was greater than 30 µM.

What is called IC50 is the midpoint of a concentration-inhibition curve.
